Source: patent US9335320B2, “Combinations of phosphoinositide 3-kinase inhibitor compounds and chemotherapeutic agents for the treatment of hematopoietic malignancies” (Genentech, Inc., priority 2009, dated 2016)
Like-named read-outs stand apart in the source and are kept apart here.

Columns and labels:
[1] = test system: WSU-DLCL2 lymphoma tumor xenografts; test: In vivo tumor xenograft efficacy, WSU-DLCL2; parameters: species or system mice; settings: for effect on tumor growth (mean tumor volume change): FIG. 18, 25 days, GDC-0941 60 mg/kg po, Formula Ib 1 mg/kg po, Rapamycin 6 mg/kg ip
Description: (§1) Xenografts were initiated with cancer cells.
(§2) Animals were monitored for regression responses.

[2] = test system: NCI-H929 multiple myeloma xenografts; test: In vivo tumor xenograft efficacy, NCI-H929; parameters: species or system mice; settings: for antitumor activity (mean tumor volume change): lenalidomide 25 mg/kg ip
Description: as §1, §2

[3] = test system: multiple myeloma OPM-2 cell xenografts; test: In vivo tumor xenograft efficacy, OPM-2; parameters: species or system mice; settings: FIG. 13, 24 days; GDC-0941 73 mg/kg po, bortezomib 0.5 mg/kg iv, lenalidomide 25 mg/kg ip, dexamethasone 3 mg/kg po
Description: as §1, §2

SUDHL6 = test: CellTiter-Glo cell proliferation assay, SUDHL6; assay type: cell-based; settings: Homo sapiens, SU-DHL-6; SUDHL6 (DLBCL), single agent, Table 2
RI1 = test: CellTiter-Glo cell proliferation assay, RI1; assay type: cell-based; settings: Ri-1; RI1 (B-NHL), single agent, Table 2
SUDHL5 = test: CellTiter-Glo cell proliferation assay, SUDHL5; assay type: cell-based; settings: Homo sapiens, SU-DHL-5; SUDHL5 (DLBCL), single agent, Table 2
MC116 = test: CellTiter-Glo cell proliferation assay, MC116; assay type: cell-based; settings: Homo sapiens; MC116 (NHL), single agent, Table 2
WSUNHL = test: CellTiter-Glo cell proliferation assay, WSUNHL; assay type: cell-based; settings: Homo sapiens, WSU-NHL, single agent, Table 2
Rec1 = test: CellTiter-Glo cell proliferation assay, Rec1; assay type: cell-based; settings: Homo sapiens; Rec1 (B-NHL), single agent, Table 2
Granta519 = test: CellTiter-Glo cell proliferation assay, Granta519; assay type: cell-based; settings: Homo sapiens, Granta-519; Granta519 (MCL), single agent, Table 2
Farage = test: CellTiter-Glo cell proliferation assay, Farage; assay type: cell-based; settings: Farage (DLBCL), single agent, Table 2
OciLy19 = test: CellTiter-Glo cell proliferation assay, OciLy19; assay type: cell-based; settings: Homo sapiens, OCI-LY19; OciLy19 (DLBCL), single agent, Table 2
Jeko1 = test: CellTiter-Glo cell proliferation assay, Jeko1; assay type: cell-based; settings: Homo sapiens, JeKo-1; Jeko1 (MCL), single agent, Table 2
SUDHL4 = test: CellTiter-Glo cell proliferation assay, SUDHL4; assay type: cell-based; settings: Homo sapiens, SU-DHL-4; SUDHL4 (DLBCL), single agent, Table 2
HT = test: CellTiter-Glo cell proliferation assay, HT; assay type: cell-based; settings: Homo sapiens; HT (DLBCL), single agent, Table 2
DB = test: CellTiter-Glo cell proliferation assay, DB; assay type: cell-based; settings: Homo sapiens; DB (DLBCL), single agent, Table 2
Ramos = test: CellTiter-Glo cell proliferation assay, Ramos; assay type: cell-based; settings: Homo sapiens; Ramos (Burkit's), single agent, Table 2
SC1 = test: CellTiter-Glo cell proliferation assay, SC1; assay type: cell-based; settings: Homo sapiens, SC-1; SC1 (DLBCL), single agent, Table 2
Toledo = test: CellTiter-Glo cell proliferation assay, Toledo; assay type: cell-based; settings: Homo sapiens; Toledo (DLBCL), single agent, Table 2
EJM = test: CellTiter-Glo cell proliferation assay, EJM; assay type: cell-based; settings: Homo sapiens, read-out: EC50 (μM) GDC-0941 (single agent), Table 4
KSM-12-BM = test: CellTiter-Glo cell proliferation assay, KSM-12-BM; assay type: cell-based; settings: Homo sapiens, read-out: EC50 (μM) GDC-0941 (single agent), Table 4
[4] = test system: primary follicular lymphoma cells from patient NHL600; test: Cell-Titer Glo survival and proliferation assay, primary follicular lymphoma cells; assay type: cell-based, human; settings: patient NHL600, FIG. 4, single agent
Description: GDC-0464 (Genentech, Inc.) is a potent thienopyrimidine PI3K inhibitor (US 2008/0076758). LY294002 (Eli Lilly & Co., CAS Reg. No. 154447-36-6) is also a potent inhibitor of PI3 kinases (WO 2003/035099).

[5] = test system: p-AKT and p-S6RP in DoHH2, WSU-DLCL2, OPM2, and U266 cells; test: FACS intracellular detection of p-Akt and p-S6 ribosomal protein; assay type: cell-based, human; settings: 5 μM for 4 hrs, FIGS. 1a and 1b
Description: (§3) B cell lines (DoHH2 and WSU-DLCL2) and Myeloma cell lines (OPM2 and U266) were maintained in RPMI-1640/10% FBS in the presence of Pen/Strep and Glutamine.
Seed 10^7 cells of each cell line in 10 mL culture media in 10 cm Petri dish, 2 dishes for each cell line. • 2. […] Keep cells at 37° C., 5% CO2 incubator for 4 hours before harvesting. • 4. Transfer 1 mL of each condition (equivalent to 10^6 cells) to 5 mL FACS tube (BD) and spin at 1200 rpm for 5 min prior to fixation (harvest the other 9 mL culture-9×10^6 cells to 15 mL conical tube for Western). • 5. Aspirate the supernatant and fix the cells at room temperature with Fix/Perm Medium A (CAT #GAS001S-100) for 15 min. • 6. Wash the cells with PBS/2% FBS 1× • 7. Aspirate the supernatant and permeabilize the cells at room temperature with Fix/Perm Medium B (CAT #GAS002S-100) for 15 min. • 8. Wash the cells with PBS/2% FBS 1× • 9. Resuspend cells with 300 uL PBS/2% BSA and divide cells into 3 tubes 100 uL each (one for isotype-Rabbit IgG Alexa Fluor-647 and one for p-Akt Alexa Fluor-647 clone 193H12 and one for p-S6RP Alexa Fluor-647 clone D57.2.2E, all rabbit abs are from Cell Signaling). • 10. Add 50 ng of each Ab to corresponding tube and incubate at room temperature for 30 min. • 11. Wash the cells with PBS/2% FBS 1× • 12. Resuspend cells with 300 uL PBS/2% BSA and acquire data on FACSCalibur (BD) using CellQuest program. • 13. […]

[6] = test system: p-AKT and p-S6RP in DoHH2, WSU-DLCL2, OPM2, and U266 cells; test: Western blotting for p-Akt, p-BAD and p-S6 ribosomal protein; assay type: cell-based, human; settings: 5 μM for 4 hrs, FIG. 2
Description: Cells were treated as indicated and lysates analyzed by Western Blotting. Beta Actin blotting indicates approximately equal loading of lysates in each lane.
as §3
Protocol: • 1. Seed 10^7 cells of each cell line in 10 mL culture media in 10 cm Petri dish, 2 dishes for each cell line. • 2. […] Keep cells at 37° C., 5% CO2 incubator for 4 hours before harvesting. • 4. Harvest 9 mL culture (equivalent to 9×10^6 cells) to 15 mL conical tube and pellet and make cell lysates with 1×SDS sample buffer. Transfer the other 1 mL of each condition (equivalent to 1×10^6 cells) to 5 mL FACS tube (BD) for FACS. • 5. Wash cells once with cold PBS. • 6. Measure the OD of the protein samples and prepare the samples with NuPAGE electrophoresis system reagents to load 20 ug of each. • 7. Mix each protein sample for electrophoresis with appropriate amount of NuPAGE LDS sample buffer and Reducing Agent and apply 70° C. heat for 10 min. • 8. Load 10 uL of SeeBlue Plus2 Pre-stained standard and 20 ug of each sample into 4-12% NuPAGE Norvex Bis-Tris Gel and run with MES-SDS buffer in the presence of antioxidant (135 volts for 1 hour in the XCell SureLock Mini-Cell apparatus). • 9. Transfer gels to the blotting membrane using iBlot apparatus. • 10. […]

[7] = test system: BJAB lymphoma tumor xenografts; test: In vivo tumor xenograft efficacy, BJAB; parameters: species or system mice
Description: as §1, §2

[8] = test system: primary diffuse large B-cell lymphoma (DLBCL) cells from patient NHL640-A055; settings: patient NHL640-A055, FIG. 5
[9] = test system: DoHH2 lymphoma tumor xenografts; test: In vivo tumor xenograft efficacy, DoHH2; settings: FIG. 8, 34 days; GDC-0941 73 mg/kg po daily 21 days, rituximab 5 mg/kg iv qwk×3, CHOP
Description: The efficacy of the combinations of the invention may be measured in vivo by implanting allografts or xenografts of cancer cells in rodents and treating the tumor-bearing animals with the combinations.
The animals were fed ad libitum water (reverse osmosis, 1 ppm Cl) and NIH 31 Modified and Irradiated Lab Diet® consisting of 18.0% crude protein, 5.0% crude fat, and 5.0% crude fiber. The mice were housed on irradiated ALPHA-Dri® Bed-O'Cobs® Laboratory Animal Bedding in static microisolators on a 12-hour light cycle at 21-22° C. (70-72° F.) and 40-60% humidity.
Xenografts were initiated with cancer cells. […] On the day of tumor implant, each test mouse received 1×10^7 cells (0.2 mL) implanted subcutaneously in the right flank, and tumor growth was monitored as the average size approached the target range of 100 to 150 mm3. […] Volume was calculated using the formula: Tumor Volume (mm^3)=(w^2×l)/2 […]
Tumors were measured twice each week using calipers. Mice were monitored individually, and each animal was euthanized when its tumor reached a volume of 1500 mm3 or at the end of the study on Day 40, whichever came first. […] The time to endpoint (TTE) for each mouse was calculated from the following equation: TTE (days)=[log10(endpoint volume,mm^3)−b]/m […]

Bjab = test: CellTiter-Glo cell proliferation assay, Bjab; settings: Homo sapiens
Description: (§4) The homogeneous assay procedure involves adding the single reagent (CellTiter-Glo® Reagent) directly to cells cultured in serum-supplemented medium. Cell washing, removal of medium and multiple pipetting steps are not required. The system detects as few as 15 cells/well in a 384-well format in 10 minutes after adding reagent and mixing.
(§5) The individual measured EC50 values of the Formula I compounds and of the chemotherapeutic agent against the particular cell are compared to the combination EC50 value. […] A CI less than 0.8 indicates synergy. A CI between 0.8 and 1.2 indicates additivity. A CI greater than 1.2 indicates antagonism. The strength of synergy is assessed according to Chou and Talalay.
(§6) The CellTiter-Glo® Luminescent Cell Viability Assay, including reagents and protocol are commercially available (Promega Corp., Madison, Wis., Technical Bulletin TB288). The assay assesses the ability of compounds to enter cells and inhibit cell proliferation. The assay principle is based on the determination of the number of viable cells present by quantitating the ATP present in a homogenous assay where addition of the Cell-Titer Glo reagent results in cell lysis and generation of a luminescent signal through the luciferase reaction. […]
(§7) Day 5—Develop Plates, Thaw Cell Titer Glo Buffer at room temperature. […] Read luminescence on Analyst HT Plate Reader (half second per well). […]

OPM2 = test: CellTiter-Glo cell proliferation assay, OPM2
Description: as §4, §5, §6, §7

DoHH2 = test: CellTiter-Glo cell proliferation assay, DoHH2; settings: for EC50: Homo sapiens
Description: (§8) The in vitro potency of the combinations of Formula I compounds with chemotherapeutic agents was measured by the cell proliferation assay of Example 15; the CellTiter-Glo® Luminescent Cell Viability Assay, commercially available from Promega Corp., Madison, Wis. […] The homogeneous assay procedure involves adding the single reagent (CellTiter-Glo® Reagent) directly to cells cultured in serum-supplemented medium. Cell washing, removal of medium and multiple pipetting steps are not required. The system detects as few as 15 cells/well in a 384-well format in 10 minutes after adding reagent and mixing.
The individual measured EC50 values of the Formula I compounds and of the chemotherapeutic agent against the particular cell are compared to the combination EC50 value. The combination index (CI) score is calculated by the Chou and Talalay method (Chou, T. and Talalay, P. (1984) Adv. Enzyme Regul. 22:27-55). A CI less than 0.8 indicates synergy. A CI between 0.8 and 1.2 indicates additivity. A CI greater than 1.2 indicates antagonism. The strength of synergy is assessed according to Chou and Talalay.
The assay assesses the ability of compounds to enter cells and inhibit cell proliferation. The assay principle is based on the determination of the number of viable cells present by quantitating the ATP present in a homogenous assay where addition of the Cell-Titer Glo reagent results in cell lysis and generation of a luminescent signal through the luciferase reaction. The luminescent signal is proportional to the amount of ATP present.
Procedure: Day 1—Seed Cell Plates (384-well black, clear bottom, microclear, TC plates with lid from Falcon #353962), Harvest cells, Seed cells at 1000 cells per 54 μl per well into 384 well Cell Plates for 3 days assay. Cell Culture Medium: RPMI or DMEM high glucose, 10% Fetal Bovine Serum, 2 mM L-Glutamine, P/S. Incubate O/N at 37 C, 5% CO2.
Day 2—Add Drug to Cells, Compound Dilution, DMSO Plates (serial 1:2 for 9 points), Add 20 ul compounds at 10 mM in the 2nd column of 96 well plate. […]

MM1.S = test: CellTiter-Glo cell proliferation assay, MM1.S; settings: Homo sapiens, read-out: EC50 (μM) GDC-0941 (single agent)
Description: as §8
(§9) The individual measured EC50 values of the Formula I compounds and of the chemotherapeutic agent against the particular cell are compared to the combination EC50 value. The combination index (CI) score is calculated by the Chou and Talalay method (Chou, T. and Talalay, P. (1984) Adv. Enzyme Regul. 22:27-55). A CI less than 0.8 indicates synergy. […] The strength of synergy is assessed according to Chou and Talalay.
(§10) The assay assesses the ability of compounds to enter cells and inhibit cell proliferation. The assay principle is based on the determination of the number of viable cells present by quantitating the ATP present in a homogenous assay where addition of the Cell-Titer Glo reagent results in cell lysis and generation of a luminescent signal through the luciferase reaction. […]

MOLP-8 = test: CellTiter-Glo cell proliferation assay, MOLP-8; settings: Homo sapiens, MOLP-8, read-out: EC50 (μM) GDC-0941 (single agent)
Description: as §8, §9, §10

NCI-H929 = test: CellTiter-Glo cell proliferation assay, NCI-H929; settings: Homo sapiens, NCI-H929, read-out: EC50 (μM) GDC-0941 (single agent)
Description: as §8, §9, §10

WSU-DLCL2 = test: CellTiter-Glo cell proliferation assay, WSU-DLCL2; settings: Homo sapiens
Description: as §8, §9, §10

RPMI-8226 = test: CellTiter-Glo cell proliferation assay, RPMI-8226; settings: Homo sapiens, RPMI-8226, read-out: EC50 (μM) GDC-0941 (single agent)
Description: as §8, §9, §10

[10] = FIG. 16, 33 days, GDC-0941 75 mg/kg po, bortezomib 0.5 mg/kg iv, dexamethasone 3 mg/kg po

Cc1c(CN2CCN(C(=O)[C@H](C)O)CC2)sc2c(N3CCOCC3)nc(-c3cnc(N)nc3)nc12 [Formula Ib, (S)-1-(4-((2-(2-aminopyrimidin-5-yl)-7-methyl-4-morpholinothieno[3,2-d]pyrimidin-6-yl)methyl)piperazin-1-yl)-2-hydroxypropan-1-one]
effect on tumor growth (mean tumor volume change) [1]: little effect on tumor growth

CC(C)C[C@H](NC(=O)[C@H](Cc1ccccc1)NC(=O)c1cnccn1)B(O)O [bortezomib, [(1R)-3-methyl-1-({(2S)-3-phenyl-2-[(pyrazin-2-ylcarbonyl)amino]propanoyl}amino)butyl]boronic acid]
antitumor activity (mean tumor volume change) ([2]; FIG. 12, 22 days, single agents, GDC-0941 73 mg/kg po, bortezomib 1 mg/kg iv, dexamethasone 10 mg/kg po): exceeded by the efficacy of bortezomib
partial responses ([2]; FIG. 12, cohorts of 10 mice): 3
antitumor activity (mean tumor volume change) [2, 10]: modest activity
antitumor activity (mean tumor volume change) [3]: sub-clinical response which was not different than that of vehicle

CS(=O)(=O)N1CCN(Cc2cc3nc(-c4cccc5[nH]ncc45)nc(N4CCOCC4)c3s2)CC1 [GDC-0941, 4-(2-(1H-indazol-4-yl)-6-((4-(methylsulfonyl)piperazin-1-yl)methyl)thieno[3,2-d]pyrimidin-4-yl)morpholine]
EC50 (SUDHL6): 10 nM
EC50 (RI1): 40 nM
EC50 (SUDHL5): 80 nM
EC50 (MC116): 160 nM
EC50 (WSUNHL): 160 nM
EC50 (Rec1): 160 nM
EC50 (Granta519): 210 nM
EC50 (Farage): 240 nM
EC50 (OciLy19): 320 nM
EC50 (Jeko1): 320 nM
EC50 (SUDHL4): 1350 nM
EC50 (HT): 2840 nM
EC50 (DB): ≥ 10000 nM
EC50 (Ramos): ≥ 10000 nM
EC50 (SC1): ≥ 10000 nM
EC50 (Toledo): ≥ 10000 nM
EC50 (EJM): 1.5 µM
EC50 (KSM-12-BM): > 5 µM
potency against primary cancer cells (viable cells) [4]: surprising and unexpected degree of potency
p-AKT signal (flow cytometry) [5]: abolished p-AKT signal
p-S6RP signal (flow cytometry) [5]: reduced or abolished p-S6RP signal
p-AKT signal (western blotting) [6]: significantly reduced (where present)
p-S6RP signal (western blotting) [6]: significantly reduced (where present)
antitumor activity (mean tumor volume change) ([1]; FIG. 7, 20 days, GDC-0941 73 mg/kg po daily 21 days, rituximab 5 mg/kg days 0, 7, 14, CHOP from day 0): only modest activity
effect on tumor growth (mean tumor volume change) [1]: little effect on tumor growth
antitumor activity (mean tumor volume change) ([7]; FIG. 10, 25 days, GDC-0941 73 mg/kg po daily 21 days, CHOP from day 0): only modest activity
antitumor activity (mean tumor volume change) ([7]; FIG. 11, 25 days, GDC-0941 75 mg/kg po qd×21, rituximab 5 mg/kg days 0, 7, 14): only modest activity
antitumor activity (mean tumor volume change) [3]: indistinguishable and moderate tumor activity
cell viability, relative potency [8]: significantly more potent than doxorubicin
antitumor activity (mean tumor volume change) [9]: significantly different than vehicle
EC50 (Bjab): 0.33 µM
EC50 (Bjab; read-out: EC50 (μM) GDC-0941 (single agent)): 0.33 µM
EC50 (OPM2; Homo sapiens, OPM-2, read-out: EC50 (μM) GDC-0941 (single agent)): 1.23 µM
EC50 (DoHH2; DOHH-2): 0.26 µM
EC50 (DoHH2; DOHH-2, read-out: EC50 (μM) GDC-0941 (single agent)): 0.16 µM
EC50 (MM1.S): 0.22 µM
EC50 (MOLP-8): 0.06 µM
EC50 (NCI-H929): 0.43 µM
EC50 (WSU-DLCL2; WSUDLCL2): 0.13 µM
EC50 (WSU-DLCL2; WSUDLCL2, read-out: EC50 (μM) GDC-0941 (single agent)): 0.17 µM
EC50 (RPMI-8226): 2.53 µM

Nc1cccc2c1CN(C1CCC(=O)NC1=O)C2=O (stereo not shown) [lenalidomide, 3-(4-amino-1-oxoisoindolin-2-yl)piperidine-2,6-dione]
antitumor activity (mean tumor volume change) [2, 10]: modest activity
antitumor activity (mean tumor volume change) [3]: indistinguishable and moderate tumor activity

C[C@@H]1C[C@H]2[C@@H]3CCC4=CC(=O)C=C[C@]4(C)[C@@]3(F)[C@@H](O)C[C@]2(C)[C@@]1(O)C(=O)CO [dexamethasone, (8S,9R,10S,11S,13S,14S,16R,17R)-9-fluoro-11,17-dihydroxy-17-(2-hydroxyacetyl)-10,13,16-trimethyl-6,7,8,11,12,14,15,16-octahydrocyclopenta[a]phenanthren-3-one, reference compound]
antitumor activity (mean tumor volume change) [2, 10]: modest activity
antitumor activity (mean tumor volume change) [3]: indistinguishable and moderate tumor activity
response in cell proliferation assay (OPM2; multiple myeloma OPM2 cells, FIG. 6, single agent): relatively weak response
single agent activity on viable cells (dose-response) (DoHH2; B-NHL cell line DoHH2, FIG. 3): relatively impotent activity
